Laboratory results published in US20250019376A1, “CHROMANE AMIDINE MONOBACTAM ANTIBIOTICS” (priority 2021, published 2025).

How the values were obtained:
Conditions in all cases: lowest concentration inhibiting 95% of growth (OD600); with BLi relebactam 4 μg/mL; 22 hours, 35±2° C.
[1] = test system: Acinetobacter baumannii expressing TEM-1, AmpC, and Oxa-24/40 (CL6188); assay type: cell-based
Experimental: (§1) The concentrations of compounds required to inhibit the growth of various strains of bacteria were determined in an assay that assessed bacterial growth by measuring optical density at 600 nm (OD600). The bacterial strains tested included the clinical strains Escherichia co/i expressing NDM-1 (CLB30016), Klebsiella pneumoniae expressing KPC-1 (CL6569), Acinetobacter baumannii expressing TEM-1, AmpC, and Oxa-24/40 (CL6188) and Pseudomonas aeruginosa expressing AmpC (CL5701). All compounds were tested in the presence of a f3 lactamase inhibitor (BLi, Relebactam) in 384-well microplates.
(§2) The clinical strains were stored as frozen single use stocks, thawed and diluted into 1.1× cation-adjusted Mueller-Hinton 11 broth to achieve approximately 2×10^5 CFU/mL. Test compounds were dissolved in DMSO and diluted 1:50 in the assay, resulting in a final concentration range of 100 μM to 0.098 μM. On the day of the assay, 1 μL of test compound was added to the plate followed by 4 μL of 50 μg/mL BLi in MOPS buffer and 45 μL of diluted bacteria. Plates were centrifuged at 1000 rpm for 30 seconds, shaken at approximately 800 rpm for 1 minute, and incubated at 35±2° C. for 22 hours. The concentration of BLi used in the assay was 4 μg/mL. At the end of the incubation, absorbance at 600 nm was determined using a spectrophotometer. Inhibition was quantitated by identifying the lowest concentration of test compound that was required to inhibit […] of the growth of the bacteria.

[2] = test system: Escherichia co/i expressing NDM-1 (CLB30016); experiment: Growth inhibitory concentration (OD600), E. coli CLB30016; assay type: cell-based, Escherichia coli
Experimental: as §1, §2

[3] = test system: Klebsiella pneumoniae expressing KPC-1 (CL6569); experiment: Growth inhibitory concentration (OD600), K. pneumoniae CL6569; assay type: cell-based
Experimental: as §1, §2

[4] = test system: Pseudomonas aeruginosa expressing AmpC (CL5701); experiment: Growth inhibitory concentration (OD600), P. aeruginosa CL5701; assay type: cell-based
Experimental: as §1, §2

| SMILES | AB_CL6188 MITC95 [1] [µM] | EC_CLB30016 MITC95 [2] [µM] | KP_CL6569 MITC95 [3] [µM] | PA_CL5701 MITC95 [4] [µM] |
| --- | --- | --- | --- | --- |
| COC[C@]1(NC(=N)c2ccc3c(c2)CC[C@H]([C@](C)(O/N=C(\C(=O)N[C@@H]2C(=O)N(OS(=O)(=O)O)C2(C)C)c2csc(N)n2)C(=O)O)O3)CC[C@@H](N)CC1 [Compound 126, (S)-2-((R)-6-(N-((1s,4S)-4-amino-1-(methoxymethyl)cyclohexyl)carbamimidoyl)chroman-2-yl)-2-((((Z)-1-(2-aminothiazol-4-yl)-2-(((S)-2,2-dimethyl-4-oxo-1-(sulfooxy)azetidin-3-yl)amino)-2-oxoethylidene)amino)oxy)propanoic acid] | 12.5 | 25 | 1.563 | – |
| CC1(C)[C@H](NC(=O)/C(=N\O[C@](C)(C(=O)O)[C@H]2CCc3cc(C(=N)NC4CC5(CC(N)C5)C4)ccc3O2)c2csc(N)n2)C(=O)N1OS(=O)(=O)O (stereo partly drawn) [Compound 61, (S)-2-((R)-6-(N-((2R,4r,6R)-6-aminospiro[3.3]heptan-2-yl)carbamimidoyl)chroman-2-yl)-2-((((Z)-1-(2-aminothiazol-4-yl)-2-(((S)-2,2-dimethyl-4-oxo-1-(sulfooxy)azetidin-3-yl)amino)-2-oxoethylidene)amino)oxy)propanoic acid] | 6.25 | – | 0.3906 | 1.563 |
| CC1(C)[C@H](NC(=O)/C(=N\O[C@](C)(C(=O)O)[C@H]2CCc3cc(C(=N)N[C@H]4C[C@@]5(CCNC5)C4)ccc3O2)c2csc(N)n2)C(=O)N1OS(=O)(=O)O [Compound 23, (S)-2-((R)-6-(N-((2s,4R)-6-azaspiro[3.4]octan-2-yl)carbamimidoyl)chroman-2-yl)-2-((((Z)-1-(2-aminothiazol-4-yl)-2-(((S)-2,2-dimethyl-4-oxo-1-(sulfooxy)azetidin-3-yl)amino)-2-oxoethylidene)amino)oxy)propanoic acid] | 6.25 | 6.25 | 0.7813 | – |
| CC1(C)[C@H](NC(=O)/C(=N\O[C@](C)(C(=O)O)[C@H]2CCc3cc(C(=N)N[C@H]4C[C@@H](N)C4)ccc3O2)c2csc(N)n2)C(=O)N1OS(=O)(=O)O [Compound 7, (S)-2-((R)-6-(N-((1 s,3 S)-3-aminocyclobutyl)carbamimidoyl)chroman-2-yl)-2-((((Z)-1-(2-aminothiazol-4-yl)-2-(((S)-2,2-dimenthyl-4-oxo-1-(sulfooxy)azetidin-3-yl)amino)-2-oxoethylidene)amino)oxy)propanoic acid] | 5.729 | 4.688 | 0.3906 | – |
| COC[C@]1(NC(=N)c2ccc3c(c2)CC[C@H]([C@](C)(O/N=C(\C(=O)N[C@@H]2C(=O)N(OS(=O)(=O)O)C2(C)C)c2csc(N)n2)C(=O)O)O3)CC[C@H](N)CC1 [Compound 127, (S)-2-((R)-6-(N-((1r,4R)-4-amino-1-(methoxymethyl)cyclohexyl)carbamimidoyl)chroman-2-yl)-2-((((Z)-1-(2-aminothiazol-4-yl)-2-(((S)-2,2-dimethyl-4-oxo-1-(sulfooxy)azetidin-3-yl)amino)-2-oxoethylidene)amino)oxy)propanoic acid] | 12.5 | 6.25 | 0.7813 | – |
| CC1(C)[C@H](NC(=O)/C(=N\O[C@](C)(C(=O)O)[C@H]2CCc3cc(C(=N)N[C@H]4C[C@@](N)(C[C@@H](O)CO)C4)ccc3O2)c2csc(N)n2)C(=O)N1OS(=O)(=O)O [Compound 95, (S)-2-((R)-6-(N-((1R,3R)-3-amino-3-((R)-2,3-dihydroxypropyl)cyclobutyl)carbamimidoyl)chroman-2-yl)-2-((((Z)-1-(2-aminothiazol-4-yl)-2-(((S)-2,2-dimethyl-4-oxo-1-(sulfooxy)azetidin-3-yl)amino)-2-oxoethylidene)amino)oxy)propanoic acid] | 6.25 | 6.25 | 0.3906 | – |
| CC1(C)[C@H](NC(=O)/C(=N\O[C@](C)(C(=O)O)[C@H]2CCc3cc(C(=N)NC4CCC(N)(CO)CC4)ccc3O2)c2csc(N)n2)C(=O)N1OS(=O)(=O)O (stereo partly drawn) [Compound 70, (S)-2-((R)-6-(N-((1s,4S)-4-amino-4-(hydroxymethyl)cyclohexyl)carbamimidoyl)chroman-2-yl)-2-((((Z)-1-(2-aminothiazol-4-yl)-2-(((S)-2,2-dimethyl-4-oxo-1-(sulfooxy)azetidin-3-yl)amino)-2-oxoethylidene)amino)oxy)propanoic acid] | 4.688 | – | 0.293 | – |
| COCC[C@]1(N)CC[C@H](NC(=N)c2ccc3c(c2)CC[C@H]([C@](C)(O/N=C(\C(=O)N[C@@H]2C(=O)N(OS(=O)(=O)O)C2(C)C)c2csc(N)n2)C(=O)O)O3)CC1 [Compound 64, (S)-2-((R)-6-(N-((1r,4R)-4-amino-4-(2-methoxyethyl)cyclohexyl)carbamimidoyl)chroman-2-yl)-2-((((Z)-1-(2-aminothiazol-4-yl)-2-(((S)-2,2-dimethyl-4-oxo-1-(sulfooxy)azetidin-3-yl)amino)-2-oxoethylidene)amino)oxy)propanoic acid] | 6.25 | – | 0.7813 | 3.125 |
| COCc1c(C(=N)N[C@H]2C[C@@H](N)C2)ccc2c1CC[C@H]([C@](C)(O/N=C(\C(=O)N[C@@H]1C(=O)N(OS(=O)(=O)O)C1(C)C)c1csc(N)n1)C(=O)O)O2 [Compound 124, (S)-2-((R)-6-(N-((1s,3S)-3-aminocyclobutyl)carbamimidoyl)-5-(methoxymethyl)chroman-2-yl)-2-((((Z)-1-(2-aminothiazol-4-yl)-2-(((S)-2,2-dimethyl-4-oxo-1-(sulfooxy)azetidin-3-yl)amino)-2-oxoethylidene)amino)oxy)propanoic acid] | 12.5 | 50 | 1.563 | – |
| CC1(C)[C@H](NC(=O)/C(=N\O[C@](C)(C(=O)O)[C@H]2CCc3cc(C(=N)NC4CC(N)(C[C@H](O)CO)C4)ccc3O2)c2csc(N)n2)C(=O)N1OS(=O)(=O)O (stereo partly drawn) [Compound 94, (S)-2-((R)-6-(N-((1S,3R)-3-amino-3-((S)-2,3-dihydroxypropyl)cyclobutyl)carbamimidoyl)chroman-2-yl)-2-((((Z)-1-(2-aminothiazol-4-yl)-2-(((S)-2,2-dimethyl-4-oxo-1-(sulfooxy)azetidin-3-yl)amino)-2-oxoethylidene)amino)oxy)propanoic acid] | 6.25 | 3.125 | 0.3906 | – |
